Test results from US11291640B2, “Endoxifen for the treatment of bipolar I disorder” (Jina Pharmaceuticals, Inc., priority 2020, dated 2022).
Counter-ions that a name gives are not always drawn.

Legend:
[1] = test system: patients of bipolar I disorders; assay: Clinical study, MADRS score at each visit; format: in vivo; conditions: day 21 (EOT); patient with bipolar I disorders
Procedure: (§1) Clinical study of an enteric coated tablet comprising endoxifen citrate formulation was carried out by administering to the patient doses of 2 mg to 16 mg of endoxifen citrate in an enteric coated tablet once per day for at least 21 days according to the present application.
(§2) The clinical study was a multicenter, randomized, double-blind, double-dummy, active controlled, parallel study to assess the efficacy and safety of endoxifen enteric coated tablet 8 mg and divalproex sodium extended release tablet 1000 mg in patients of bipolar I disorders.
(§3) Total 228 patients were enrolled in the study. All 228 patients were qualified for safety and mITT population and 213 patients were qualified for PP population.

[2] = test system: patients of bipolar I disorders; assay: Clinical study, total YMRS score at each visit; format: in vivo; conditions: day 21 (EOT); patient with bipolar I disorders
Procedure: as §1, §2, §3

PKC = conditions: cited from earlier work
[3] = test system: patients of bipolar I disorders; assay: Clinical study, response time, remission time and therapeutic dose monitoring; format: in vivo; conditions: from table 1 and 2
Procedure: The term “response time” means an early indicator of treatment efficacy and it is not more than 2 days of treatment according to the embodiments described herein.
The term “remission time” refers to an absence or minimal symptoms of both mania and depression, which is not more than 4 days of treatment according to the embodiments described herein. Remission is the target of acute treatment.
as §1, §2

Structure (SMILES): CC/C(=C(\c1ccc(O)cc1)c1ccc(OCCNC)cc1)c1ccccc1 [Endoxifen, (Z)-1-(4-Hydroxyphenyl)-1-{4-[2-(monomethylamino)ethoxy]phenyl}-2-pheny 1-1-butene citrate]
- improvement in the MADRS score [1]: significant and sustained improvements
- improvement in the YMRS score [2]: significant and sustained improvements
- potency in inhibiting the PKC activity compared to tamoxifen (PKC): four-fold higher potency
- early response time of the treatment [3]: at least 2 days
- remission time of treatment [3]: not more than 4 days
